Experimental findings from ChEMBL document CHEMBL5370526, “Recent advances in EZH2-based dual inhibitors in the treatment of cancers” (Eur J Med Chem, 2023) are described below.

pEC50, pIC50: −log10 of the molar value.

For assay [1], the target named is T1, Histone-lysine N-methyltransferase EZH2 (Homo sapiens, UniProt Q15910). Nature of the assay: Inhibition of EZH2 methyltransferase activity in human PA-1 cells assessed as reduction in H3K27me3 level measured after 4 days by Western blot analysis. The assay is classed as cell-based. A general note: In western blotting, separated proteins are transferred to a membrane and probed.

Assay [2] in a line: Antiproliferative activity against human DLBCL cells assessed as reduction in cell viability measured after 72 hrs by MTT assay. In kind it is functional, cell-based. (Tetrazolium assays rely on reduction of a dye to a coloured formazan, in cell work by metabolically active cells.)
In assay [3] the target is T1, Histone-lysine N-methyltransferase EZH2.
Description: Inhibition of human EZH2 using core histone as substrate incubated for 1 hr by fluorescence based assay
The target is the same in assay [4]. The source holds these as a separate data set.
Description: Inhibition of human EZH2 in human MCF-10A cells assessed as reduction in H3K27me3 levels incubated for 72 hrs by Western blot analysis
Assay [5] shares this target. Briefly: Inhibition of EZH2 (unknown origin) using plate-coated histone as substrate at 5 uM incubated for 90 mins in presence of 5 uM SAM by AlphaScreen assay. On the technique in general: Alpha assays give light when donor and acceptor beads are brought close together.
The subject of a further assay is MCF-10A. Nature of the assay: Antiproliferative activity against human MCF-10A cells assessed as cell growth inhibition measured after 72 hrs by MTT assay. The assay is classed as functional, cell-based.
In a further assay the test system is HCT-116. Briefly: Cytotoxicity against human HCT-116 cells assessed as reduction in cell viability measured after 72 hrs by MTT assay. In kind it is functional, cell-based. The following applies: HCT-116, 72 h.
Assay [6] deals with KARPAS-422. Nature of the assay: Growth inhibition of human KARPAS-422 cells assessed as reduction in cell viability measured after 72 hrs by MTT assay. The assay is classed as functional.
For assay [7], the system named is KARPAS-422. Briefly: Antitumor activity against human KARPAS-422 cells xenografted in nude mouse assessed as reduction in tumor growth at 100 mg/kg, po administered once daily for 14 consecutive days relative to control. The assay is classed as functional. To be noted: read-out: TGI.
The subject of another assay is A549. Nature of the assay: Antiproliferative activity against human A549 cells assessed as reduction in cell viability measured after 48 hrs by MTT assay. To be noted: A549, 48 h. The assay is classed as functional, cell-based.
The next assay has as its system G-401. Nature of the assay: Growth inhibition of human G-401 cells assessed as reduction in cell viability measured after 72 hrs by MTT assay. In kind it is functional.
For another assay, the system named is NCI-N87. Briefly: Growth inhibition of human NCI-N87 cells assessed as reduction in cell viability measured after 72 hrs by MTT assay. In kind it is functional.
Another assay deals with MV4-11. Briefly: Growth inhibition of human MV4-11 cells assessed as reduction in cell viability measured after 72 hrs by MTT assay. In kind it is functional.
The subject of the next assay is RS4-11. Briefly: Growth inhibition of human RS4-11 cells assessed as reduction in cell viability measured after 72 hrs by MTT assay. In kind it is functional.
Assay [8] deals with T1, Histone-lysine N-methyltransferase EZH2. Nature of the assay: Inhibition of EZH2 (unknown origin) using SAM as substrate preincubated for 10 mins followed by substrate addition and measured after 4 hrs by HTRF assay.
The target in assay [9] is Histone-lysine N-methyltransferase EZH2 (Homo sapiens, UniProt Q15910, Y641F). Nature of the assay: Inhibition of N-terminal FLAG-tagged recombinant full-length human EZH2 Y641F mutant in PRC2 complex expressed in baculovirus infected Sf9 cells using H3K27me0 biotin/SAM as substrate preincubated for 10 mins followed by substrate addition measured after 4 hrs by HTRF assay.

Assay [10] addresses T1, Histone-lysine N-methyltransferase EZH2. Nature of the assay: Inhibition of wildtype EZH2 (unknown origin).
The subject of another assay is ASPC1. Briefly: Antiproliferative activity against human ASPC1 cells harboring KRAS G12D mutant assessed as reduction in cell growth measured after 72 hrs by MTT assay. The assay is classed as functional, cell-based. The following applies: ASPC1, 72 h.

T1 sequence (Q15910 whole entry): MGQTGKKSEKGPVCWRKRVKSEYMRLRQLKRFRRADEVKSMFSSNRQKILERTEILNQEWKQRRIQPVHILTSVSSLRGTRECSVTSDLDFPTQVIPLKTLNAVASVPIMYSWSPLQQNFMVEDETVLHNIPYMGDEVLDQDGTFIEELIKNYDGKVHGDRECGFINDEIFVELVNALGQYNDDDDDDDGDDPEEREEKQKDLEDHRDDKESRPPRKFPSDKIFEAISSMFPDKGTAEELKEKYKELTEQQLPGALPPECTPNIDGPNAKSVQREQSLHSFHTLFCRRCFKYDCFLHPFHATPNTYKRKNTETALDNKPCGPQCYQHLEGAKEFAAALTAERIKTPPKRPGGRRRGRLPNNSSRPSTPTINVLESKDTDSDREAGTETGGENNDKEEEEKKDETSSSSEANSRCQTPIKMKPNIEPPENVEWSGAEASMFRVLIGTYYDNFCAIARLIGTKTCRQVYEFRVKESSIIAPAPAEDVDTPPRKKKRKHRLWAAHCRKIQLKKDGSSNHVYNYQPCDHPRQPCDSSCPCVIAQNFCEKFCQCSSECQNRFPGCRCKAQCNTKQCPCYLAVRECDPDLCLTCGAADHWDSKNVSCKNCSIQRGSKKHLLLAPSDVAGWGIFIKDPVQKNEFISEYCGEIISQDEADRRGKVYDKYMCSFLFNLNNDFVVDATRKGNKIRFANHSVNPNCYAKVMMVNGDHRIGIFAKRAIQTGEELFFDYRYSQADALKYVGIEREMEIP
Chain of Histone-lysine N-methyltransferase EZH2 (Homo sapiens, UniProt Q15910, Y641F) (Q15910 whole entry Y641F): as the sequence (Q15910 whole entry) above, with Y641F counted along it

For orientation: pIC50 means the IC50 on a negative log10 scale, so that one unit is a factor of ten. On to `CCN(c1cc(-c2ccc(CN3CCN(CCCCCCCOc4cccc5c4C(=O)N(C4CCC(=O)NC4=O)C5=O)CC3)cc2)cc(C(=O)NCc2c(C)cc(C)[nH]c2=O)c1C)C1CCOCC1` (configuration not stated), for which the pIC50 in [1] is over 8.30.

The term pEC50 denotes the EC50 on a negative log10 scale, so that one unit is a factor of ten. For `CCCc1cc(C)[nH]c(=O)c1CNC(=O)c1cc(-c2ccc(N3CCN(C(C)C)CC3)nc2)cc2c1cnn2C(C)C`, in [2], the pEC50 was 6.20. In addition, the negative logarithm of the IC50 (pIC50) in [3] and in [4] was over 8.00 throughout.

In the case of `CCN(c1cc(-c2ccc(CN3CCN(C(=O)CCCCCCCC(=O)N[C@H](C(=O)N4C[C@H](O)C[C@H]4C(=O)NCc4ccc(-c5scnc5C)cc4)C(C)(C)C)CC3)cc2)cc(C(=O)NCc2c(C)cc(C)[nH]c2=O)c1C)C1CCOCC1`, the pIC50 in assay [5] was 5.07.

Consider `COc1cc2nc(N3CCN(C)CC3)nc(NC3CCN(Cc4ccccc4)CC3)c2cc1OC`, for which, in the assay on MCF-10A, the pIC50 is under 4.82.

As a reminder, the GI50 is the concentration that inhibits growth by half. As for `CCN1CCN(c2ccc(-c3cc(C(=O)NCc4c(C)cc(C)[nH]c4=O)c(C)c4c3O[C@](C)(CN3CCOCC3)O4)cn2)CC1`, the pIC50 with HCT-116 is 9.26. Also, the GI50 in the assay on KARPAS-422 [6] turned out to be 210 nM. Also, the inhibition in vivo at 100 mg/kg in the assay with KARPAS-422 [7] is 82%.

Regarding `Cc1cc(C)c(CNC(=O)c2c(C)cn(Cc3ccc(C(F)(F)F)cc3)c2C)c(=O)[nH]1`, in the assay with A549, the negative logarithm of the IC50 (pIC50) is 3.57.

As for `Cc1cc(C)c(CNC(=O)c2cc(Br)c3c(c2C)O[C@@](C)([C@H]2CC[C@H](N(C)C)CC2)O3)c(=O)[nH]1`, in the assay on HCT-116, the pIC50 was 9.21. Also, the concentration for 50% growth inhibition (GI50) stood at 4 nM in the assay on KARPAS-422 [6], 17.7 nM with G-401 and 536 nM in the assay with NCI-N87.

As to `Cc1cc(C)c(CNC(=O)c2cc(Cl)c3c(c2C)O[C@@](C)([C@H]2CC[C@H](N(C)C)CC2)O3)c(=O)[nH]1` [VALEMETOSTAT], in the assay with HCT-116, the pIC50 is 7.62. Further, the concentration for 50% growth inhibition (GI50) turned out to be 4.8 nM in the assay with KARPAS-422 [6], 4.8 nM in the assay with MV4-11 and 78.3 nM with RS4-11.

Turning to `Cc1cc(C)c(CNC(=O)c2cc(-c3ccc(N4CCN(CCNC(=O)C56CC7CC(CC(C7)C5)C6)CC4)nc3)cc3c2cnn3C(C)C)c(=O)[nH]1`, the pIC50 in assay [8] was 6.92.

Regarding `CCCc1cc(C)[nH]c(=O)c1CNC(=O)c1cc(-c2ccc(N3CCN(C)CC3)nc2)nc2c1cnn2C(C)C`, the pIC50 in [9] is 7.10.

For the compound `CCN(c1cc(C(=O)NCc2c(C)cc(C)[nH]c2=O)c2cc(CN3CCCCC3)oc2c1)C1CCOCC1`, the negative-log IC50 (pIC50) in assay [10] was 8.19.

Take `CCN(c1cc(-c2ccc(OCCCCCNC(=O)C[C@@H]3N=C(c4ccc(Cl)cc4)c4c(sc(C)c4C)-n4c(C)nnc43)cc2)cc(C(=O)NCc2c(C)cc(C)[nH]c2=O)c1C)C1CCOCC1`: the pIC50 in the assay on ASPC1 is 6.16.
